Measurements from patent publication US11142554B2 (MASSACHUSETTS INSTITUTE OF TECHNOLOGY, priority 2015, dated 2021).
Positions of bridges follow the written chain, without caps; N, C: chain ends. Non-standard residues stand in square brackets, D forms with d. Residues, ends and D or L forms follow the SMILES beside them. S5 = C=CCCC[C@](C)(N)C(=O)O; Nle = CCCC[C@H](N)C(=O)O

Experiments:
Mcl-1 = Mcl-1 (Homo sapiens, UniProt Q07820); assay: Receptor binding IC50 of M1 and stapled M1 peptides (Table 2); details: among M1 and its stapled variants
Sequence of Mcl-1 (Q07820 whole entry): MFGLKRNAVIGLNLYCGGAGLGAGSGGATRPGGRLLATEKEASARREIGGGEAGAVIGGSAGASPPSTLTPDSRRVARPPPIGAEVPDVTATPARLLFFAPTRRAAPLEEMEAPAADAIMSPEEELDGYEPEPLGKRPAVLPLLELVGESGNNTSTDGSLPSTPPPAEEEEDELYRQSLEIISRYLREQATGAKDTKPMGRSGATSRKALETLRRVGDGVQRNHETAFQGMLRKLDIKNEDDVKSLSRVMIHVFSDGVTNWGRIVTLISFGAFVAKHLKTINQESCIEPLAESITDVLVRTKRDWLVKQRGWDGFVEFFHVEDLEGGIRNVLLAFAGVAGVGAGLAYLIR
Text: Peptides 1-10 are SEQ ID NOs: 46, 47, 9, 48, 49, 50, 7, 51, 52, and 8 respectively.

MEF cells = assay: Lactate dehydrogenase (LDH) release assay, non-specific cell lysis; assay type: cell-based
Text: FIG. 5|Results of studies assessing non-specific cell-lysis by internally cross-linked peptides. Lactate dehydrogenase release assays (LDH) identified membrane-disruptive peptides 3 (SEQ ID NO:9) and 7 (SEQ ID NO:7); tested in MEF cells. Peptides 7, 10, 3, and 11-20 are SEQ ID NOs: 7, 8, 9, and 10-19 respectively.
Additional studies examined the non-specific cell lysis activity of peptide 3 (SEQ ID NO:9) (M1 SAHBd) and certain sequence variants of peptide 3 (SEQ ID NO:9) (M1 SAHBd).

[1] = Circular dichroism analysis of alpha-helicity; assay type: physicochemical; details: Tris buffer pH 7.4
Text: FIG. 4|Results of studies assessing the alpha-helicity of various internally cross-linked peptides. Circular dichroism analysis illustrating helicity of stapled peptides 3 (SEQ ID NO:9), 7 (SEQ ID NO:7), and 10 (SEQ ID NO:8) and the non-stapled peptide of the amino acid sequence […] (SEQ ID NO:54), dissolved in Tris buffer pH.7.4.

[2] = target: T1, interaction between Bak and Mcl-1 (Homo sapiens, UniProt Q07820); assay: Mcl-1 immunoprecipitation and Bak western analysis in OCI-AML3 cell lysate; assay type: biochemical
T1 construct: endogenous in cells; host or cells: OCI-AML3 cell lysate
T1 sequence (Q07820 whole entry): as above
Text: The same blot was probed with the Bak (˜28 kD) antibody.

selectivity for Mcl-1 over Bcl-xL, Bcl-2, Bclw and Bfl 1 (in words) (Mcl-1): greatest selectivity for Mcl-1
LDH release, membrane disruption (in words) (MEF cells): membrane-disruptive
alpha-helical content (in words) [1]: highest alpha-helical content
Structure (SMILES): CCCC[C@H](NC(=O)[C@H](Cc1c[nH]c2ccccc12)NC(=O)[C@@H](NC(C)=O)[C@@H](C)CC)C(=O)N[C@@]1(C)CCCC=CCCC[C@@](C)(C(=O)N[C@@H](CCCNC(=N)N)C(=O)N[C@@H](CC(C)C)C(=O)NCC(=O)N[C@@H](CC(=O)O)C(=O)N[C@@H](CCC(=O)O)C(=O)N[C@H](C(=O)N[C@@H](CC(N)=O)C(=O)N[C@@H](C)C(=O)N[C@@H](Cc2ccc(O)cc2)C(=O)N[C@@H](Cc2ccc(O)cc2)C(=O)N[C@@H](C)C(=O)N[C@@H](CCCNC(=N)N)C(=O)N[C@@H](CCCNC(=N)N)C(N)=O)[C@@H](C)CC)NC(=O)[C@H](CC(C)C)NC(=O)CNC(=O)[C@H](CCC(N)=O)NC1=O [peptide 3, IWNleXQGLXRLGDEINAYYARR] (Ac-IW[Nle][S5]QGL[S5]RLGDEINAYYARR-NH2; staple 4-8; N-terminus assumed)
disruption of Bak/Mcl-1 interaction (in words) [2]: interaction between Bak and Mcl-1 was disrupted
